Data published in EP0337459A2, “Platinum complex, process for preparing same and antitumor agent” (TORAY INDUSTRIES, INC., priority 1988, dated 1989).
Where “and” joins values, the source holds several entries; their conditions need not be identical. Equal values may be shown once.

What was measured:
L1210 Mouse Leukemia = experiment: Antitumor activity against L1210 mouse leukemia inoculated i.p. in mice; format: in vivo, CDF₁ mouse; settings: for Survival days (mean ± standard deviation) / T/C (%): CDF₁ mice; for Survival rate: living mice on the 30th day / mice in group
Protocol: Approximately 10⁵ cells of mouse leukemia L1210 which had been subcultured in DBA/2 mice were inoculated into the abdominal cavity of CDF₁ mouse (male, 6 weeks old, each group consisting of 6 to 10 mice). […] CDDP and CBDCA were tested as the positive control. Each complex tested was used in the form of a solution or suspension in 0.05% "Tween 80"-saline or in distilled water. Antitumor activity was evaluated based on the T/C value, calculated according to the following formula: [formula] The number of living mice was also recorded on the 30th day.

Slc:ICR mice = experiment: Acute toxicity test in mice (LD50, Miller-Tainter method); format: in vivo; settings: intraperitoneal, Slc:ICR mice (male), death rate on the 14th day
Protocol: The acute toxicity test of the compounds of the present invention to mice were carried out by using CDDP as the control. Platinum complexes to be tested was administered intraperitoneally to Slc:ICR mice (male, 5 weeks old, 6 mice/group). Each complex was used in the form of a solution or suspension in a 0.05% "Tween 80" - saline. The LD₅₀ value was calculated by the Miller-Tainter method from the death rate on the 14th day from the date of the administration.

[1] = dose 1 mg/kg i.p. on Day 1, 5 and 9
[2] = dose 10 mg/kg i.p. on Day 1, 5 and 9
[3] = dose 25 mg/kg i.p. on Day 1, 5 and 9
[4] = dose 50 mg/kg i.p. on Day 1, 5 and 9
[5] = dose 100 mg/kg i.p. on Day 1, 5 and 9
[6] = dose 200 mg/kg i.p. on Day 1, 5 and 9
[7] = dose 5 mg/kg i.p. on Day 1, 5 and 9
[8] = dose 2.5 mg/kg i.p. on Day 1, 5 and 9, 2.5 mg/kg
[9] = dose 5 mg/kg i.p. on Day 1, 5 and 9, 5 mg/kg
[10] = dose 7.5 mg/kg i.p. on Day 1, 5 and 9, 7.5 mg/kg

Compound	Survival days (mean ± standard deviation) (L1210 Mouse Leukemia; [1])	T/C (%) (L1210 Mouse Leukemia; [1])	Survival days (mean ± standard deviation) (L1210 Mouse Leukemia; [2])	T/C (%) (L1210 Mouse Leukemia; [2])	Survival days (mean ± standard deviation) (L1210 Mouse Leukemia; [3])	T/C (%) (L1210 Mouse Leukemia; [3])	Survival days (mean ± standard deviation) (L1210 Mouse Leukemia; [4])	T/C (%) (L1210 Mouse Leukemia; [4])	Survival days (mean ± standard deviation) (L1210 Mouse Leukemia; [5])	T/C (%) (L1210 Mouse Leukemia; [5])	Survival days (mean ± standard deviation) (L1210 Mouse Leukemia; [6])	T/C (%) (L1210 Mouse Leukemia; [6])	Survival rate (L1210 Mouse Leukemia; [1])	Survival rate (L1210 Mouse Leukemia; [2])	Survival rate (L1210 Mouse Leukemia; [3])	Survival rate (L1210 Mouse Leukemia; [4])	Survival rate (L1210 Mouse Leukemia; [5])	Survival rate (L1210 Mouse Leukemia; [6])	LD₅₀ Value (Slc:ICR mice)	further results
N.N.O=C([O-])C1(C(=O)[O-])CCC1.[Pt+2] [CBDCA, Platinum(II) cis-diamine-1,1-cyclobutanedicarboxylate, reference compound]	8.3 ± 0.5 days	98%	9.3 ± 0.5 days	109%	10.1 ± 1.3 days	119%	13.1 ± 2.3 days	156%	14.1 ± 3.7 days	166%	9.6 ± 0.7 days	113%	0/10	0/10	0/10	0/10	0/10	0/10	–	–
[Pt(trans-ℓ-1,2-diaminocyclohexane)] (3-acetyl-6-methyl-2H-pyran-2,4(3H)-dione)₂·H₂O [Example 2]	8.7 ± 0.5 days	104%	13.8 ± 3.6 days	164%	19.7 ± 7.5 days	235%	10.0 ± 1.1 days	119%	6.3 ± 2.0 days	75%	2.8 ± 1.6 days	33%	0/6	0/6	1/6	0/6	0/6	0/6	61 mg/kg	–
[Pt(trans-ℓ-1,2-diaminocyclohexane)] (3-acetyl-6-methyltetrahydropyran-2,4-dione)₂·H₂O [Example 1]	8.5 ± 0.5 days	101%	11.5 ± 1.2 days	137%	14.2 ± 3.2 days	169%	17.0 ± 3.0 days	202%	15.5 ± 5.0 days	185%	6.0 days	71%	0/6	0/6	0/6	0/6	0/6	0/6	98 mg/kg	–
[Pt(trans-ℓ-1,2-diaminocyclohexane)](3-acetyl-6-methyl-2H-pyran-2,4(3H)-dione)(NO₃)·H₂O [Example 14]	8.2 ± 0.4 days	98%	11.3 ± 0.8 days	135%	19.0 ± 8.5 days	226%	18.0 ± 6.2 days	214%	9.5 ± 1.2 days	113%	5.0 days	60%	0/6	0/6	2/6	1/6	0/6	0/6	73 mg/kg	–
[Pt(trans-ℓ-1,2-diaminocyclohexane)](3-acetyl-6-methyltetrahydropyran-2,4-dione) (C₃H₇COO)·H₂O [Example 5]	8.8 ± 1.6 days	104%	10.2 ± 1.6 days	120%	11.8 ± 1.7 days	139%	16.3 ± 5.0 days	192%	14.2 ± 5.0 days	167%	–	–	0/6	0/6	0/6	0/6	0/6	–	111 mg/kg	–
[Pt(trans-ℓ-1,2-diaminocyclohexane)](3-acetyl-6-methyltetrahydropyran-2,4-dione)(CH₃COO)·H₂O [Example 3]	9.2 ± 1.0 days	110%	14.0 ± 2.6 days	167%	23.0 ± 6.4 days	274%	15.2 ± 4.1 days	181%	7.7 ± 1.5 days	91%	3.0 ± 2.0 days	36%	0/6	0/6	2/6	0/6	0/6	0/6	61 mg/kg	Survival days (mean ± standard deviation) (L1210 Mouse Leukemia; [7]): 12.8 ± 3.0 days; T/C (%) (L1210 Mouse Leukemia; [7]): 152%; Survival rate (L1210 Mouse Leukemia; [7]): 0/6
cis-diamminedichloroplatinum (II) [CDDP, reference compound]	–	–	–	–	–	–	–	–	–	–	–	–	–	–	–	–	–	–	15.3 mg/kg	Survival days (mean ± standard deviation) (L1210 Mouse Leukemia; [8]): 15.2 ± 1.9 days and 12.0 ± 3.0 days and 13.0 ± 3.1 days and 10.5 ± 1.8 days; T/C (%) (L1210 Mouse Leukemia; [8]): 181% and 143% and 153% and 125%; Survival days (mean ± standard deviation) (L1210 Mouse Leukemia; [9]): 18.5 ± 6.0 days and 14.3 ± 2.9 days and 18.2 ± 0.4 days and 15.5 ± 1.4 days; T/C (%) (L1210 Mouse Leukemia; [9]): 220% and 170% and 214% and 185%; Survival days (mean ± standard deviation) (L1210 Mouse Leukemia; [10]): 17.0 ± 2.2 days and 15.5 ± 2.1 days and 20.2 ± 4.8 days and 22.3 ± 3.9 days; T/C (%) (L1210 Mouse Leukemia; [10]): 202% and 185% and 238% and 266%; Survival rate (L1210 Mouse Leukemia; dose 2.5 mg/kg i.p. on Day 1, 5 and 9): 0/6; Survival rate (L1210 Mouse Leukemia; [9]): 1/6 and 0/6; Survival rate (L1210 Mouse Leukemia; [10]): 0/6 and 1/6
